biological target: Transcription factor Jun (Homo sapiens, UniProt P05412); assay: Inhibition of AP-1-mediated transcriptional activation in human Jurkat cells by luciferase reporter gene assay
Sequence (P05412 whole entry): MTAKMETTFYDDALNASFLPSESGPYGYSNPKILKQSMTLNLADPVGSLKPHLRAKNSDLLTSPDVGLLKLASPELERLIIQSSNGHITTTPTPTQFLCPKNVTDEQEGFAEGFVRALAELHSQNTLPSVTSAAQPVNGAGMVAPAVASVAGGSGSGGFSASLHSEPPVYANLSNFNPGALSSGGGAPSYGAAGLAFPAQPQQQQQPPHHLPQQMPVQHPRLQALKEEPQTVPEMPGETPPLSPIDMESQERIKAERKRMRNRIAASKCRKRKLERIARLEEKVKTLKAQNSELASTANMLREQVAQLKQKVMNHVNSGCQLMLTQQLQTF

Row | SMILES | IC50 [µM]
1 | O=C(Nc1cc(C(F)(F)F)cc(C(F)(F)F)c1)c1cnc(C(F)(F)F)nc1C(F)(F)F [2,4-Bis-trifluoromethyl-pyrimidine-5-carboxylic acid (3,5-bis-trifluoromethyl-phenyl)-amide] | > 10
2 | N#Cc1ncc(C(=O)Nc2cc(C(F)(F)F)cc(C(F)(F)F)c2)c(C(F)(F)F)n1 [2-Cyano-4-trifluoromethyl-pyrimidine-5-carboxylic acid (3,5-bis-trifluoromethyl-phenyl)-amide] | > 10
3 | O=C(Nc1cc(C(F)(F)F)cc(C(F)(F)F)c1)c1ccc(Cl)cc1C(F)(F)F [N-(3,5-Bis-trifluoromethyl-phenyl)-4-chloro-2-trifluoromethyl-benzamide] | > 30
